Source: PubChem BioAssay AID256 (DTP/NCI, 2004)
Where “and” joins values, the source holds several entries; their conditions need not be identical. Equal entries are not always repeated. Toxic doses and inconclusive results are not listed. How the source made its calls: active means survival T/C of 150% or more; inactive means T/C below 125% in these data.

Test system: CD2F1 mice, L1210 leukemia ip, survival T/C
Assay: NCI In Vivo Anticancer Drug Screen. Data for tumor model L1210 Leukemia (intraperitoneal) in CD2F1 (CDF1) mice
Details: endpoint: mean survival time, higher = longer survival
How it was run: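 Tumor-bearing mice (transplanted tumor) were split into treated and vehicle control groups, and the measured endpoint of each treated group was divided by that of its vehicle controls.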

[1] = dose: 100.0 mg/kg/injection, schedule: Q01DX009 (ip), vehicle: saline with Tween-80
[2] = dose: 200.0 mg/kg/injection, schedule: Q01DX009 (ip), vehicle: saline with Tween-80
[3] = dose: 400.0 mg/kg/injection, schedule: Q01DX009 (ip), vehicle: saline with Tween-80
[4] = dose: 100.0 mg/kg/injection, schedule: Q01DX009 (ip), vehicle: saline
[5] = dose: 100.0 mg/kg/injection, schedule: Q01DX001 (ip), vehicle: saline with Tween-80
[6] = dose: 200.0 mg/kg/injection, schedule: Q01DX001 (ip), vehicle: saline with Tween-80
[7] = dose: 400.0 mg/kg/injection, schedule: Q01DX001 (ip), vehicle: saline with Tween-80
[8] = dose: 100.0 mg/kg/injection, schedule: Q04DX003 (ip), vehicle: saline with Tween-80

Measured: T/C

COC(=O)c1ccc(OCc2ccccc2)c([N+](=O)[O-])c1
inactive: dose: 100.0 mg/kg/injection, schedule: Q01DX001 (ip), vehicle: saline sonified 98 % of control | [1] 105 % of control | dose: 200.0 mg/kg/injection, schedule: Q01DX001 (ip), vehicle: saline sonified 96 % of control | [2] 97 % of control | dose: 400.0 mg/kg/injection, schedule: Q01DX001 (ip), vehicle: saline sonified 95 % of control | [3] 105 % of control

CC(=O)Oc1ccc(CC2N=C(c3ccccc3)OC2=O)cc1 (stereo not drawn)
inactive: dose: 50.0 mg/kg/injection, schedule: Q01DX009 (ip), vehicle: saline with Tween-80 87 % of control | [1] 91 % of control

COc1ccc(C2=NNC(=O)CC2)cc1OC
inactive: dose: 12.5 mg/kg/injection, schedule: Q04DX003 (ip), vehicle: saline 107 % of control | dose: 25.0 mg/kg/injection, schedule: Q04DX003 (ip), vehicle: saline 115 % of control | dose: 50.0 mg/kg/injection, schedule: Q04DX003 (ip), vehicle: saline 98 % of control

O=S1CC2(C1)CS(=O)C2 (stereo not drawn)
inactive: dose: 100.0 mg/kg/injection, schedule: Q01DX001 (ip), vehicle: saline 103 % of control | dose: 200.0 mg/kg/injection, schedule: Q01DX001 (ip), vehicle: saline 103 % of control | dose: 400.0 mg/kg/injection, schedule: Q01DX001 (ip), vehicle: saline 100 % of control

COC(=O)c1ccccc1-c1c(C)cccc1[N+](=O)[O-]
inactive: dose: 100.0 mg/kg/injection, schedule: Q01DX001 (ip), vehicle: Klucel (hydroxypropylcellulose) (HPC) 98 % of control | dose: 200.0 mg/kg/injection, schedule: Q01DX001 (ip), vehicle: Klucel (hydroxypropylcellulose) (HPC) 87 % of control | dose: 400.0 mg/kg/injection, schedule: Q01DX001 (ip), vehicle: Klucel (hydroxypropylcellulose) (HPC) 89 % of control

CCO[Si](OCC)OCC
inactive: dose: 75.0 mg/kg/injection, schedule: Q01DX001 (ip), vehicle: saline 108 % of control

CS/C(N)=N\C(=S)Nc1ccccc1
inactive: [1] 103 % of control | [2] 103 % of control | [3] 101 % of control

Nc1ncnc2c1ncn2C(C=O)OC(C=O)CO (stereo not drawn)
inactive: dose: 35.0 mg/kg/injection, schedule: Q01DX001 (ip), vehicle: saline 117 % of control

CC(=O)CC(=O)Nc1ccc(N=Nc2ccccc2)cc1
inactive: [1] 101 % of control | [2] 101 % of control

Cc1cc(N)c(O)cc1C
inactive: [4] 96 % of control

COC1OCC(OS(C)(=O)=O)C(OS(C)(=O)=O)C1OS(C)(=O)=O (stereo not drawn)
inactive: [5] 96 % of control | [1] 95 % of control and 100 % of control | [6] 97 % of control | [2] 96 % of control and 94 % of control | [7] 100 % of control | [3] 93 % of control and 96 % of control

O=C1/C(=C\c2ccccc2)C2CCC(C2)/C1=C\c1ccccc1
inactive: [5] 91 % of control | [6] 88 % of control | [7] 97 % of control

COc1cc([N+](=O)[O-])ccc1NC(=O)N1CCCC(C)C1 (stereo not drawn)
inactive: [5] 94 % of control and 95 % of control | [1] 88 % of control and 93 % of control | dose: 100.0 mg/kg/injection, schedule: Q04DX002 (ip), vehicle: saline with Tween-80 98 % of control | [8] 101 % of control | [6] 86 % of control and 89 % of control | [2] 95 % of control and 106 % of control | dose: 200.0 mg/kg/injection, schedule: Q04DX002 (ip), vehicle: saline with Tween-80 98 % of control | dose: 200.0 mg/kg/injection, schedule: Q04DX003 (ip), vehicle: saline with Tween-80 103 % of control | [7] 86 % of control | [3] 88 % of control and 98 % of control | dose: 400.0 mg/kg/injection, schedule: Q04DX002 (ip), vehicle: saline with Tween-80 96 % of control | dose: 400.0 mg/kg/injection, schedule: Q04DX003 (ip), vehicle: saline with Tween-80 100 % of control

CN1COc2c(Cl)cc(Cl)cc2C1
inactive: dose: 25.0 mg/kg/injection, schedule: Q01DX009 (ip), vehicle: saline 104 % of control | dose: 50.0 mg/kg/injection, schedule: Q01DX009 (ip), vehicle: saline 104 % of control | [4] 115 % of control | [8] 98 % of control

O=S(=O)(Nc1cc(Cl)c(NS(=O)(=O)c2ccccc2)cc1Cl)c1ccccc1
inactive: [5] 96 % of control | [6] 88 % of control | [7] 93 % of control
